From US10870647B2, “Imidazopyridine derivative, method for preparing same, and pharmaceutical composition containing same as active ingredient for preventing or treating cancer” (DAEGU-GYEONGBUK MEDICAL INNOVATION FOUNDATION, priority 2016, dated 2020)

Columns and labels:
Assay in all cases: Kinase selectivity, scanMAX Kinase assay panel (DiscoverX), % control at 1 uM
Type in all cases: binding
[1] = target: T1, scanMAX Kinase assay panel (Homo sapiens, UniProt O14976); details: GAK; 1 uM; read-out: Percent Control (%)
T1 construct: purchased DiscoverX
T1 sequence (O14976 1-1311): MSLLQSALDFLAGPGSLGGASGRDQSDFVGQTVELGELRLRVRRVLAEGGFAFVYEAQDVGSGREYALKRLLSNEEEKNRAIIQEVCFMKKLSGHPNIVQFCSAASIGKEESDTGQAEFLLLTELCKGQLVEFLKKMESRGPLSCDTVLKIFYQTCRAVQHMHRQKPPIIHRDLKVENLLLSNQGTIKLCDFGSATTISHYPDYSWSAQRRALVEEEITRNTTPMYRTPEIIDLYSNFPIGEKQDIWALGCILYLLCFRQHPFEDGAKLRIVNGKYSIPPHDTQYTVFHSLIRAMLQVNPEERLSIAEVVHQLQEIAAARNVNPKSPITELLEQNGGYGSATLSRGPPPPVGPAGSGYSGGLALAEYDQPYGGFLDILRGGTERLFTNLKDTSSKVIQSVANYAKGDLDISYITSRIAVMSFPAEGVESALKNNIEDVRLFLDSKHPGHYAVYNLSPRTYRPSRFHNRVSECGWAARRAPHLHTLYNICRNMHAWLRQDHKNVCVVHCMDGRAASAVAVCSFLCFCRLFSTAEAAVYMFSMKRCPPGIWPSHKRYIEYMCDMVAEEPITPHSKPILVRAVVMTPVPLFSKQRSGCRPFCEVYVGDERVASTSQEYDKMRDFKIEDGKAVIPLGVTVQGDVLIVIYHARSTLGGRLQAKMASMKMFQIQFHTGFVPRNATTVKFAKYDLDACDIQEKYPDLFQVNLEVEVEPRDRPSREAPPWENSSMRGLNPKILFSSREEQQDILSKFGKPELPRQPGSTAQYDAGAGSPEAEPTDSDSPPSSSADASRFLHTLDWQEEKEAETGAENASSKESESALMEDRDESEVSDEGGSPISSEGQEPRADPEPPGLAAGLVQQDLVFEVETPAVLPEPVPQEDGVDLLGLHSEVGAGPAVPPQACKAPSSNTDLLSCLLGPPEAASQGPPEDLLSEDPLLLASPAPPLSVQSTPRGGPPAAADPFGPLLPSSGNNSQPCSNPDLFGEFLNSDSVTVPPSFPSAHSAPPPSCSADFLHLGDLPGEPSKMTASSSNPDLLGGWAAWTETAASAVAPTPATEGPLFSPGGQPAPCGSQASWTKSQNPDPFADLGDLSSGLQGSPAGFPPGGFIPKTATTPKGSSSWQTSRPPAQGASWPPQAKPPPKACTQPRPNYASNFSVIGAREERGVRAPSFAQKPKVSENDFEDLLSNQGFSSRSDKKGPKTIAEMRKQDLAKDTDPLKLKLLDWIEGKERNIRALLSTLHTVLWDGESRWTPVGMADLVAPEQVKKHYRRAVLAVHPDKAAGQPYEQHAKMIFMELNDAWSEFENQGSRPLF
In short: (§1)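 Read-out is percent of control, derived from the signal with compound relative to positive and negative controls: (compound − positive)/(negative − positive) × 100. Each enzyme received test drug at 1 uM in DMSO, and values under 35% count as active.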

[2] = target: T2, scanMAX Kinase assay panel (Homo sapiens, UniProt O14920); details: IKK-beta; 1 uM; read-out: Percent Control (%)
T2 construct: purchased DiscoverX
T2 sequence (O14920 1-756): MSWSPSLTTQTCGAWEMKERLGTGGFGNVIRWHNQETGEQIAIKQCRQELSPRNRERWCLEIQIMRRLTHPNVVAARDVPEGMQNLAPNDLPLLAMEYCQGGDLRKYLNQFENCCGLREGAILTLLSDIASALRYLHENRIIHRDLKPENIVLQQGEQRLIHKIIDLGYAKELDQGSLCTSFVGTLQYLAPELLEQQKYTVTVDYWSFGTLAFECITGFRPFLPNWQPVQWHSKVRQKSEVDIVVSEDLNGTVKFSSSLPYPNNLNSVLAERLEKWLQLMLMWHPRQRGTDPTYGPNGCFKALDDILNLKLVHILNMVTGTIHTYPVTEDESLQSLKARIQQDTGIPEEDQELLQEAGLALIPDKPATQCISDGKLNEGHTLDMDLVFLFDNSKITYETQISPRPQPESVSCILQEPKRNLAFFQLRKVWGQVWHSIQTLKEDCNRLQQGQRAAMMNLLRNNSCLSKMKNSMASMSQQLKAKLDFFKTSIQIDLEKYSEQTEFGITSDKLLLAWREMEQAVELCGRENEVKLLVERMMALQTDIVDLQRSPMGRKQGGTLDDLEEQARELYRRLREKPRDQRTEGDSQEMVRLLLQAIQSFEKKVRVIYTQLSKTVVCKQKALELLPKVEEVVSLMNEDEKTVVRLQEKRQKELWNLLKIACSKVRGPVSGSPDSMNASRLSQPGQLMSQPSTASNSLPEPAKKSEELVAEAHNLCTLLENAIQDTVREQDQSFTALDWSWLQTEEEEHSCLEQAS
In short: as §1

[3] = target: T3, scanMAX Kinase assay panel (Homo sapiens, UniProt P36896); details: ACVR1B; 1 uM; read-out: Percent Control (%)
T3 construct: purchased DiscoverX
T3 sequence (P36896 24-505): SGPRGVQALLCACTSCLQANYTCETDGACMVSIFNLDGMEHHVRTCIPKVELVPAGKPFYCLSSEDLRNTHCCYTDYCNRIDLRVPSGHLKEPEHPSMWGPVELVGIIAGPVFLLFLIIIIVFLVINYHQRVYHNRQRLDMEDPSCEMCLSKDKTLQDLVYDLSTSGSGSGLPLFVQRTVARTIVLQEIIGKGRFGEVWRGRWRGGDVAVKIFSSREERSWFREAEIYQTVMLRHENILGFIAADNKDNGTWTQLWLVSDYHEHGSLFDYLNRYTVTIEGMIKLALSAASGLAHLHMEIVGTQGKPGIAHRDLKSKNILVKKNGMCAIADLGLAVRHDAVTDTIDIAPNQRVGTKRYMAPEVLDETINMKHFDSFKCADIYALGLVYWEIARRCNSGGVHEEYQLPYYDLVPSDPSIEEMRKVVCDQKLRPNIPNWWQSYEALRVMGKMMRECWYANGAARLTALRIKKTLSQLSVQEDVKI
In short: as §1

[4] = target: T4, scanMAX Kinase assay panel (Homo sapiens, UniProt P78362); details: SRPK2; 1 uM; read-out: Percent Control (%)
T4 construct: purchased DiscoverX
In short: as §1

T4 sequence (P78362 whole entry): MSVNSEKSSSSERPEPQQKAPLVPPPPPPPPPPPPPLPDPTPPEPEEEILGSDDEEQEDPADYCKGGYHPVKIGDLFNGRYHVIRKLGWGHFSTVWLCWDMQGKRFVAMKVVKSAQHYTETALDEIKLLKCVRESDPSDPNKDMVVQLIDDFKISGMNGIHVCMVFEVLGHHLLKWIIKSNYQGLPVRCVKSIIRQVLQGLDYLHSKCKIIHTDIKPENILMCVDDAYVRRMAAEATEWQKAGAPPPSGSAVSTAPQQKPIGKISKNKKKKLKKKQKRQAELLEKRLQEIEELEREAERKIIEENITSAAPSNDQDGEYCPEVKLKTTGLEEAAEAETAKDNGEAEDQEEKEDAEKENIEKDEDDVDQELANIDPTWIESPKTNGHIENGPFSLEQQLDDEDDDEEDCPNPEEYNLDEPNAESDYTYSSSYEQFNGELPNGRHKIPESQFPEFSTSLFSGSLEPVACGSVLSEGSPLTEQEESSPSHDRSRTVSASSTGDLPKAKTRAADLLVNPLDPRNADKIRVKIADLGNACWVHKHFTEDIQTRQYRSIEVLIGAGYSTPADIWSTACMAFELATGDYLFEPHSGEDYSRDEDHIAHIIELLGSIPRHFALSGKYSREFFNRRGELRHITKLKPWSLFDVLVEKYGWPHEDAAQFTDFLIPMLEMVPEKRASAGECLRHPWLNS

Compound	remaining binding at 1 µM [1]	remaining binding at 1 µM [2]	remaining binding at 1 µM [3]	remaining binding at 1 µM [4]
Cc1ccc(C(=O)Nc2ccc(CN3CCN(C)CC3)c(C(F)(F)F)c2)cc1C#Cc1cnc2c(Nc3cnn(C)c3)cccn12 [Example 1, 4-methyl-3-((8-((1-methyl-1H-pyrazol-4-yl)amino)imidazo[1,2-a]pyridin-3-yl)ethynyl)-N-(4-((4-methylpiperazin-1-yl)methyl)-3-(trifluoromethyl)phenyl)benzamide]	7%	3%	89%	97%
Cc1cn(-c2cc(NC(=O)c3ccc(C)c(C#Cc4cnc5c(Nc6cnn(C)c6)cccn45)c3)cc(C(F)(F)F)c2)cn1 [Example 12, 4-methyl-N-(3-(4-methyl-1H-imidazol-1-yl)-5-(trifluoromethyl)phenyl)-3-((8-((1-methyl-1H-pyrazol-4-yl)amino)imidazo[1,2-a]pyridin-3-yl)ethynyl)benzamide]	87%	39%	94%	87%
Cc1ccc(NC(=O)C2(C(=O)Nc3ccc(F)cc3)CC2)cc1C#Cc1cnc2c(Nc3cnn(C(C)C)c3)cccn12 [Example 78]	100%	100%	100%	100%
